Like-named read-outs stand apart in the source and are kept apart here.
Experiments:
[1] = in vivo; details: NOD-scid IL-2Rγc-null, mouse, po
Experimental: The blood samples were immediately lysed by mixing with 25 μl of distilled water, frozen on dry ice and stored at −80 °C until analysis. The compounds were extracted from 10 μl of each lysate by liquid–liquid extraction in the MultiScreen Solvinert 0.45 μm Hydrophobic PTFE 96-well plate system (Millipore) and stored frozen at −80 °C until analysis by LC/MS/MS in API4000 (AB Sciex, Framingham, MA). The compound concentration vs. time data were analyzed by non-compartmental analysis using Phoenix® Version 6.3 (Pharsight Corporation, Mountain View, CA, USA). Additional statistical analysis was performed with GraphPad Prism® Version 6.02 (GraphPad Software Inc, San Diego CA, USA).

[2] = system: P. falciparum 3D7; assay: Hypoxanthine incorporation growth inhibition assay, asexual blood stage, wild-type 3D7; type: cell-based, Plasmodium falciparum; details: 3D7 asexual blood stage growth, 72 h, +/- s.e.m.; for EC50: read-out: EC50 WT
Experimental: Hypoxanthine incorporation assays[36] were performed on P. falciparum asexual blood stage parasites (wild-type 3D7 or T618Q gatekeeper mutant) to determine EC50 values for test compounds. Mixed staged parasites (primarily rings) were added to 96 well plates containing compounds at concentrations of 50 μM–0.3 nM. […] Assays were carried out in triplicate at least twice.

[3] = system: P. falciparum strain 3D7A; assay: In vitro parasite reduction rate (PRR) assay; details: 10× EC50
Experimental: The assay used the limiting dilution technique to quantify the number of parasites that remained viable after drug treatment. […] To quantify the number of viable parasites after treatment, threefold serial dilutions were used with the above-mentioned samples after removing the drug. Four independent serial dilutions were performed with each sample to correct experimental variations. The number of viable parasites was determined after 21 and 28 days by counting the number of wells with growth using [^3H]-hypoxanthine incorporation. The number of viable parasites was back-calculated by using the formula X ^n-1 where n is the number of wells able to render growth and X the dilution factor (when n = 0, number of viable parasites is estimated as zero).

[4] = in vivo; details: BALB/c, mouse, po
Text: (§1) Supplementary Figure 4. Plasma concentrations over time in rodent malaria models. […] Error bars show the standard deviation. (1 picture or pasted object on this page, not shown here)

[5] = Cytotoxicity assay using HepG2 cells; details: human
Experimental: Compound mlm hlm mLogD PAMPA HepG2 name (%rem) (%rem) (nm/s) (IC50 µM)
Supplementary Table 2. Compound Properties. MLM, HLM, mLogD and PAMPA . mlm (%rem): % of compound remaining after 30 minutes’ incubation with mouse liver microsomes; hlm (%rem): % of compound remaining after 40 minutes’ incubation with human liver microsomes; mLogD: measured LogD at pH 7.4; PAMPA: parallel artificial membrane permeability assay; HepG2: Cytotoxicity assay using HepG2 cells; n.t.: not tested.

[6] = Plasma levels in satellite groups of mice, P. berghei experiment; type: in vivo, mouse; details: BALB/c, mouse, in vivo, po, 25 mg/kg
Text: as §1

[7] = Cytotoxicity assay (ATP depletion), HT-29; type: cell-based; details: human, HT-29 colorectal adenocarcinoma cells, 0.001–10 µM, n = 6
Experimental: A549 (lung carcinoma; ATCC, Ref. ATCC® CCL-185™), plated at 7.5×10^3 cells/well; HT-29 (colorectal adenocarcinoma; ATCC, Ref. ATCC® HTB-38™), plated at 7.5×10^3 cells/well; and MCF7 (breast adenocarcinoma; ATCC, Ref. ATCC® HTB-22™), plated at 9× 10^3 cells/well, were placed into clear bottom, opaque 96 well plates in cell line-specific medium and allowed to attach overnight. […] FCS, 1× GlutaMAX™ Supplement (Life Technologies, 35050061) and 50 units/ml penicillin and 50 µg/ml streptomycin for 48 h. Six independent assays were performed for each line and were carried out by CXR Biosciences Ltd. End point for cytotoxicity assessment was carried out using an ATP depletion kit (CellTiter-Glo Luminescent Cell Viability Assay for ATP quantitation (Promega, Cat # G7572)). Results expressed relative to the 0.1% DMSO control. Unpaired Student’s t-tests were performed using GraphPad Prism software (7.0).

[8] = system: P. falciparum gatekeeper mutant (T618Q) stage V gametocytes; assay: Gametogenesis (rounding up) assay, T618Q stage V gametocytes; type: cell-based, Plasmodium falciparum; details: 30 µM xanthurenic acid; 2 µM ML1, 1 µM ML10
[9] = system: P. chabaudi (AS); assay: Synchronous P. chabaudi AS model in BALB/c mice; type: in vivo, Plasmodium chabaudi; details: 4 days
Experimental: Similar experiments were performed using P. chabaudi AS (from David Walliker, University of Edinburgh) with the following modifications. To allow dosing to be carried out more conveniently during the day, reversal of the light/dark exposure of mice for 2 weeks prior to the experiment was used to switch schizogony from midnight to noon each day. Mice were dosed at different time points in an attempt to have maximal coverage at the point of schizogony. All animal work protocols carried out at LSHTM were approved and licensed by the United Kingdom Home Office as governed by law under the Animals (Scientific Procedures) Act of 1986, in strict accordance with the Code of Practice Part 1 for the housing and care of animals (21 March 2005), available at http://www.homeoffice.gov.uk/science-research/animal-research/

[10] = system: P. falciparum Pf3D7 0087/N9; assay: GSK P. falciparum humanized mouse model (GSKPfalcHuMouse) efficacy; details: 4 days
Text: The mice were infected with 2 × 10^7 P. falciparum Pf3D7^0087/N9-infected erythrocytes (Day 0) at ~ 40% chimerism in peripheral blood. […] AUCED90 is the average daily exposure of the compound in whole blood that reduces parasitemia at day 7 of the in vivo assay by 90% with respect to parasitemia in vehicle-treated mice.

[11] = system: P. falciparum wild-type (3D7) stage V gametocytes; assay: Gametogenesis (rounding up) assay, wild-type 3D7 stage V gametocytes; type: cell-based, Plasmodium falciparum; details: 30 µM xanthurenic acid; 2 µM ML1, 1 µM ML10
Experimental: Plasmodium falciparum clone 3D7A (obtained from Dr Lisa Ranford-Cartwright, University of Edinburgh) gametocytes were initiated and cultured using an adapted version of the traditional Trager and Jenson method modified by Fivelman and colleagues. Stage V gametocytes were purified on a 60% Percoll gradient. Purified parasite samples were diluted in warm complete media (RPMI-1640 (Sigma), 0.5% Albumax (Invitrogen), 0.03% L-glutamine (Sigma), 0.2% Glucose (Sigma), 1× hypoxanthine (Sigma)), to a volume that would allow a final volume of […] per sample and a haematocrit of <10%. […] Control tubes containing DMSO only were kept at 37 °C. All other samples were incubated at room temperature for 30 min immediately after addition of test compounds. Samples were then washed once in warm RPMI followed by removal of the supernatant to leave a final haematocrit of roughly 50%. Samples were smeared on glass slides and fixed in 100% methanol (VWR) then stained for 15 min in 10% Giemsa R66 (VWR) and observed by light microscopy. The number of gametocytes at stage V and rounded up per 900 erythrocytes were counted three consecutive times to produce an average count. Numbers of parasites rounded up were compared to the no drug control.

[12] = Parallel artificial membrane permeability assay (PAMPA); type: in vitro ADME
Text: Compound mlm hlm mLogD PAMPA HepG2
name (%rem) (%rem) (nm/s) (IC50 µM)
Supplementary Table 2. Compound Properties. MLM, HLM, mLogD and PAMPA . mlm

Question: Which half-life ([1]; 50 mg/kg) does the source give for `Cc1cn2c(-c3ccnc(NCC4CC4)n3)c(-c3ccc(F)c(NS(C)(=O)=O)c3)nc2cc1CN(C)C` [ML10] here?
Answer: 8.7 h

Question: What about the half-life ([1]; 100 mg/kg) of the same molecule?
Answer: 17 h

Question: And the EC50 [2]?
Answer: 2.1 nM

Question: What about the EC50 ([2]; Plasmodium falciparum, 3D7, 72 h) of the same molecule?
Answer: ~2 nM

Question: What about the EC90 ([2]; Plasmodium falciparum) of the same molecule?
Answer: 4.5 nM

Question: And the “lag before killing (effects reversible following wash-out)” value [3]?
Answer: about 24 h

Question: And the half-life ([4]; 25 mg/kg)?
Answer: 0.8 h

Question: What about the concentration at 30 min ([4]; 50 mg/kg) of the same molecule?
Answer: 10.4 µM

Question: What about the concentration at 60 min ([4]; 50 mg/kg) of the same molecule?
Answer: ~8.4 µM

Question: And the concentration at 4 h ([4]; 50 mg/kg)?
Answer: < 0.084 µM

Question: What about the half-life ([4]; 50 mg/kg) of the same molecule?
Answer: 1.1 h

Question: What about the IC50 [5] of the same molecule?
Answer: > 20000 nM

Question: And the half-life [6]?
Answer: 0.8 h

Question: And the EC50 at 48 h [7]?
Answer: > 10000 nM

Question: What about the “rounding up of T618Q gametocytes” value [8] of the same molecule?
Answer: insensitive

Question: What about the “reduction in blood stage parasitaemia” value ([9]; single daily oral dose 50 mg/kg just prior to schizogony) of the same molecule?
Answer: 60.9%

Question: And the “reduction in blood stage parasitaemia (mean)” value ([9]; twice daily oral dose 50 mg/kg (3 h apart))?
Answer: 97.8%

Question: And the “parasitaemia at the end of the treatment” value ([10]; 100 mg/kg twice daily oral)?
Answer: not detectable

Question: And the effect on parasitaemia ([10]; 50 or 100 mg/kg twice daily oral)?
Answer: dramatically reduced parasitaemia

Question: And the “rounding up of wild-type gametocytes” value [11]?
Answer: blocked rounding up

Question: And the Papp [12]?
Answer: 8.16 ×10⁻⁶ cm/s
